Laboratory results from patent US20100099756A1, “USES OF INCENSOLE, INCENSOLE ACETATE AND DERIVATIVES THEREOF” (YISSUM RESEARCH DEVELOPMENT COMPANY OF THE HEBREW …, priority 2006, published 2010).

Experiments:
c-Fos = c-Fos immunoreactivity in mouse brain; type: in vivo, female Sabra mice; conditions: 50 mg/kg i.p., 60 min after administration
Text: The drawings were modified from plates 30; 38,45, 89 respectively from Paxinos and Franklin (2001). The atlas sections are arranged from anterior a to posterior d. The number under each section indicates its distance (mm) from the bregma. “A” is anterior to bregma and “P” is posterior to bregma.
For analysis of c-Fos immunoreactivity, positive nuclei were identified based on their round form and optical density at least twice that of background. The numbers of c-Fos immunoreactive nuclei from the right and left hemispheres were averaged to obtain a representative number for the given region from each mouse. Student t tests were performed comparing the control (vehicle) with the IA group.
The effect of IA on different brain regions were studied by looking at the effect of IA on c-Fos immunoreactivity in mice brains 60 min after administration of IA (50 mg/kg; i.p.). The c-Fos transcription factor is a product of an immediate early gene and its increase serves as a marker of enhanced neuronal activity. It is thus used in histological sections to map out brain regions that are activated or attenuated after treatment with psychoactive drugs [Werme, M., Ringholm, A., Olson, L. & Brene S. Differential patterns of induction of NGFI-B, Norl and c-fos mRNAs in striatal subregions by haloperidol and clozapine. Brain Res. 863, 112-119 (2000); and Dragunow, M., Robertson, G. S., Faull, R. L., Robertson, H. A. & Jansen, K. D2 dopamine receptor antagonists induce fos and related proteins in rat striatal neurons. (1990) Neuroscience 37, 287-294]. […] The central nucleus of the amygdala and the lateral septum play major roles in the expression of emotions [Thompson, B. L. & Rosen, J. B. Immediate-early gene expression in the central nucleus of the amygdala is not specific for anxiolytic or anxiogenic drugs. Neuropharmacology 50, 57-68 (2006); and Henry, B., Vale, W. & Markou, A. The effect of lateral septum corticotropin-releasing factor receptor 2 activation on anxiety is modulated by stress. J. Neurosci. 26, 9142-9152 (2006)]; it is assumed that c-Fos expression in the central nucleus of the amygdala is due to circuits that are engaged by both anxiolytic and anxiogenic drugs [Thompson, B. L. & Rosen, J. B. Immediate-early gene expression in the central nucleus of the amygdala is not specific for anxiolytic or anxiogenic drugs. Neuropharmacology 50, 57-68 (2006).]

TRPV3 = biological target: T1, TRPV3 (Mus musculus, UniProt Q8K424); assay: Elevated plus maze in WT and TRPV3−/− mice; type: in vivo, C57BL/6 mice; set-up: from tissue; host or cells: whole animal, wild type C57BL/6 female mice (TRPV3 KO as control); conditions: 75 mg/kg
T1 sequence (Q8K424 1-791): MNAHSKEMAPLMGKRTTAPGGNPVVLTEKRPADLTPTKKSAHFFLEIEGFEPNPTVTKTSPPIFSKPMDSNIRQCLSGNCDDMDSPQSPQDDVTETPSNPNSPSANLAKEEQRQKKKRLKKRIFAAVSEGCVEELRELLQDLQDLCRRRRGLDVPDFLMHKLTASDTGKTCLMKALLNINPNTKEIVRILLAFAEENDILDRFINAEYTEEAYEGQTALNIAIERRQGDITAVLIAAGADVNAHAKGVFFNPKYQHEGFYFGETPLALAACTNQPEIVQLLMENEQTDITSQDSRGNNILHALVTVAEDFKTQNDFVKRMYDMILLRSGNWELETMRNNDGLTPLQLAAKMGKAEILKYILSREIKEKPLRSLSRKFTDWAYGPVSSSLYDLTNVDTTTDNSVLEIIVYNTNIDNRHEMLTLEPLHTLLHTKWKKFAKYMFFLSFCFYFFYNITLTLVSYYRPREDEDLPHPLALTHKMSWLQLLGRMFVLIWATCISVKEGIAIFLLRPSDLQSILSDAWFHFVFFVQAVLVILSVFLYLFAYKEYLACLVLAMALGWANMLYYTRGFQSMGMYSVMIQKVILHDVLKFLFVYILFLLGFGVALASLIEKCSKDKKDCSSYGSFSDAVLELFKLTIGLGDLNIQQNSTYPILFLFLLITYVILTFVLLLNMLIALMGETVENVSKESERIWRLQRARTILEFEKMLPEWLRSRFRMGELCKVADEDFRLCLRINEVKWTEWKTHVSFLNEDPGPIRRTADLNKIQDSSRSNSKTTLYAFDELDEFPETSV
Protocol: Wild type and TRPV3^−/− mice (18-20 weeks old) were injected with vehicle (isopropanol:emulphor:saline=1:1:18) or IA (75 mg/kg). 30 min later they were tested in a, the elevated plus maze (5 min), followed by b, 9 min exposure to the Porsolt forced-swimming test. […] Data are presented as means±SEM; n=4-5. * p<0.05, compared to WT-Vehicle-injected mice (Bonferroni post hoc test). ** p<0.01, compared to WT-Vehicle-injected mice (Bonferroni post hoc test).
Mice were placed in the central platform (10×10 cm) between the open (10×45 cm) and enclosed (10×45×40 cm) arms of a plus maze. The number of entries and the time spent in each of the arms was recorded. As described by others (Crawley, 2000; Treit and Menard, 1998), an ‘anti-anxiety’ effect was calculated both as the ratio of entries onto the open arms to total arm entries, and as the % time on the open arms proportional to the time in the closed arms. Mice (female Sabra strain, aged 3.5-4.5 months old) were injected intraperitoneally with 10, 30 or 50 mg/kg of incensole acetate or with vehicle. Each dose was administered to 5 mice. Fifty min after injection the mice were tested in the plus-maze for […] effects. Desipramine (5 mg/kg) was injected to a separate group of mice as a positive control. One-way Anova indicated significant effects (F=8.9, df=4.27, P<0.01). […] Data are presented as means±SEM. DMI=desipramine […]

CC(=O)OC1CC/C(C)=C/CC/C(C)=C/CC2(C(C)C)CCC1(C)O2 (centres unmarked) [IA, incensole acetate]
c-Fos in the central nucleus of the amygdala (c-Fos): significantly increased c-Fos
c-Fos in the hippocampal CA3 region (c-Fos): significantly reducing c-Fos
c-Fos in the lateral septum (c-Fos): significantly increased c-Fos
c-Fos in the medial striatum (c-Fos): significantly reducing c-Fos
c-Fos in the motor cortex (c-Fos): significantly reducing c-Fos
c-Fos in the solitary nucleus (c-Fos): significantly increased c-Fos
time on the open arms, TRPV3−/− mice (TRPV3; TRPV3−/− mice, IA vs vehicle): spent identical time on the open arms
time on the open arms, WT mice (TRPV3; WT mice, 30 min after injection): potent anxiolytic-like effect
